Test results: patent US20230041563A1, “N-(1,3,4-OXADIAZOL-2-YL)ARYLCARBOXAMIDES OR SALTS THEREOF, PREPARATION METHODS, HERBICIDAL COMPOSITIONS AND USES THEREOF” (priority 2018, published 2023)

What was measured:
Assay type in all cases: in vivo
Abutilon theophrasti = assay: Weeding effect in post-emergence stage (greenhouse pot spray)
How it was run: (§1)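 Post-emergence foliar spray on 2-3 leaf greenhouse pot plants at 15 to 500 g a.i./ha with methyl oleate emulsifiable concentrate (1.5 liter/ha) added; growth control by fresh weight after 3 weeks.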

Digitaria sanguinalis = assay: as above
How it was run: as §1

Echinochloa crusgalli = assay: as above
How it was run: as §1

Amaranthus retroflexus = assay: as above
How it was run: as §1

Stellaria media = assay: as above
How it was run: as §1

[1] = tested on: Indica rice (Huanghuazhan); assay: Safety test of control experiments on rice; conditions: Dose 250 g a.i./ha
Excerpt: (§2) The activity level criteria for plant damage (i.e., growth control rate) are as follows: Comparative Experiments: [table]

[2] = tested on: Japonica rice (Huaidao No. 5); assay: Safety test of control experiments on rice; conditions: Dose 250 g a.i./ha
Excerpt: as §2

[3] = tested on: rice and Echinochloa crusgali; assay: Herbicide selection index between rice and Echinochloa crusgali; conditions: average dose causing 10% phytotoxicity to rice divided by average dose causing 90% control efficiency to Echinochloa crusgali

| Structure (SMILES) | Abutilion theophrasti (activity level) (Abutilon theophrasti; Table 2, dose 250 g a.i./ha) | Abutilion theophrasti (activity level) (Abutilon theophrasti; Table 2, dose 500 g a.i./ha) | Digitaria sanguinalis (activity level) (Digitaria sanguinalis; Table 2, dose 250 g a.i./ha) | Digitaria sanguinalis (activity level) (Digitaria sanguinalis; Table 2, dose 500 g a.i./ha) | Echinochloa crusgah (activity level) (Echinochloa crusgalli; Table 2, dose 250 g a.i./ha) | Echinochloa crusgah (activity level) (Echinochloa crusgalli; Table 2, dose 500 g a.i./ha) | Amaranthus retroflexus (activity level) (Amaranthus retroflexus; Table 2, dose 250 g a.i./ha) | Amaranthus retroflexus (activity level) (Amaranthus retroflexus; Table 2, dose 500 g a.i./ha) | Stellaria media (activity level) (Stellaria media; Table 2, dose 250 g a.i./ha) | Stellaria media (activity level) (Stellaria media; Table 2, dose 500 g a.i./ha) | Indica rice (Huanghuazhan) (plant damage level) [1] | Japonica rice (Huaidao No. 5) (plant damage level) [2] | Selection index between rice and Echinochloa crusgali [3] | Abutilion theophrasti (activity level) (Abutilon theophrasti; Table 2, dose 125 g a.i./ha) | Digitaria sanguinalis (activity level) (Digitaria sanguinalis; Table 2, dose 125 g a.i./ha) | Echinochloa crusgah (activity level) (Echinochloa crusgalli; Table 2, dose 125 g a.i./ha) | Amaranthus retroflexus (activity level) (Amaranthus retroflexus; Table 2, dose 125 g a.i./ha) | Stellaria media (activity level) (Stellaria media; Table 2, dose 125 g a.i./ha) |
| --- | --- | --- | --- | --- | --- | --- | --- | --- | --- | --- | --- | --- | --- | --- | --- | --- | --- | --- |
| CCCSc1c(C(F)(F)F)ccc(C(=O)Nc2nnc(C)o2)c1F [Compound 1-7] | 5 (Level 5: growth control rate is above 85%) | 5 (Level 5: growth control rate is above 85%) | 5 (Level 5: growth control rate is above 85%) | 5 (Level 5: growth control rate is above 85%) | 5 (Level 5: growth control rate is above 85%) | 5 (Level 5: growth control rate is above 85%) | 5 (Level 5: growth control rate is above 85%) | 5 (Level 5: growth control rate is above 85%) | 5 (Level 5: growth control rate is above 85%) | 5 (Level 5: growth control rate is above 85%) | 0 (Level 0: growth control rate is less than 5%) | 0 (Level 0: growth control rate is less than 5%) | >5 |  |  |  |  |  |
| CCCS(=O)(=O)c1c(C(F)(F)F)ccc(C(=O)Nc2nnc(C)o2)c1F [Compound 1-9] | 5 (Level 5: growth control rate is above 85%) |  | 5 (Level 5: growth control rate is above 85%) |  | 5 (Level 5: growth control rate is above 85%) |  | 5 (Level 5: growth control rate is above 85%) |  | 5 (Level 5: growth control rate is above 85%) |  | 0 (Level 0: growth control rate is less than 5%) | 0 (Level 0: growth control rate is less than 5%) | >5 | 5 (Level 5: growth control rate is above 85%) | 5 (Level 5: growth control rate is above 85%) | 5 (Level 5: growth control rate is above 85%) | 5 (Level 5: growth control rate is above 85%) | 5 (Level 5: growth control rate is above 85%) |
| CCCCSc1c(C(F)(F)F)ccc(C(=O)Nc2nnc(C)o2)c1F [Compound 1-13] | 5 (Level 5: growth control rate is above 85%) |  | 5 (Level 5: growth control rate is above 85%) |  | 5 (Level 5: growth control rate is above 85%) |  | 5 (Level 5: growth control rate is above 85%) |  | 5 (Level 5: growth control rate is above 85%) |  | 0 (Level 0: growth control rate is less than 5%) | 0 (Level 0: growth control rate is less than 5%) | >5 |  |  |  |  |  |
| Cc1nnc(NC(=O)c2ccc(C(F)(F)F)c([S+]([O-])C3COC3)c2F)o1 (stereo not drawn) [Compound 1-82] |  | 5 (Level 5: growth control rate is above 85%) |  | 5 (Level 5: growth control rate is above 85%) |  | 5 (Level 5: growth control rate is above 85%) |  | 5 (Level 5: growth control rate is above 85%) |  | 5 (Level 5: growth control rate is above 85%) | 0 (Level 0: growth control rate is less than 5%) | 0 (Level 0: growth control rate is less than 5%) | >5 |  |  |  |  |  |
